Numbers after ± are expanded uncertainties.
Test: mn = molality of the nth substance listed, in mol/kg
Settings: 101.3 kPa, Liquid; for speed of sound: Frequency=3 MHz, Single path-length method; for mass density: Vibrating tube method

CCCCn1cc[n+](C)c1.[Cl-] [1-butyl-3-methylimidazolium chloride] + O
Settings | mass density, 293.15 K [kg/m3] | mass density, 298.15 K [kg/m3] | mass density, 303.15 K [kg/m3] | mass density, 308.15 K [kg/m3] | speed of sound, 293.15 K [m/s] | speed of sound, 298.15 K [m/s] | speed of sound, 303.15 K [m/s] | speed of sound, 308.15 K [m/s]
m1 = 0.101 | 999.535 ± 0.3 | 998.308 ± 0.3 | 996.883 ± 0.3 | 995.222 ± 0.3 | 1496.7 ± 1 | 1509.8 ± 1 | 1521.1 ± 1 | 1530.8 ± 1
m1 = 0.1997 | 1000.82 ± 0.3 | 999.565 ± 0.3 | 998.065 ± 0.3 | 996.342 ± 0.3 | 1510.4 ± 1.1 | 1522.7 ± 1.1 | 1533 ± 1.1 | 1542 ± 1
m1 = 0.3007 | 1002.1 ± 0.3 | 1000.79 ± 0.3 | 999.244 ± 0.3 | 997.484 ± 0.3 | 1523.6 ± 1.1 | 1534.7 ± 1.1 | 1544.3 ± 1.1 | 1552.7 ± 1.1
m1 = 0.4004 | 1003.37 ± 0.3 | 1002 ± 0.3 | 1000.4 ± 0.3 | 998.586 ± 0.3 | 1536.1 ± 1.1 | 1546.5 ± 1.1 | 1555.3 ± 1.1 | 1562.6 ± 1.1

CCCCn1cc[n+](C)c1.[Br-] [1-butyl-3-methylimidazolium bromide] + O
Settings | mass density, 293.15 K [kg/m3] | mass density, 298.15 K [kg/m3] | mass density, 303.15 K [kg/m3] | mass density, 308.15 K [kg/m3] | speed of sound, 293.15 K [m/s] | speed of sound, 298.15 K [m/s] | speed of sound, 303.15 K [m/s] | speed of sound, 308.15 K [m/s]
m1 = 0.1009 | 1003.27 ± 0.31 | 1002.03 ± 0.31 | 1000.58 ± 0.31 | 998.918 ± 0.31 | 1493.5 ± 1 | 1506.5 ± 1 | 1517.9 ± 1 | 1527.7 ± 1
m1 = 0.2003 | 1008.11 ± 0.31 | 1006.83 ± 0.31 | 1005.32 ± 0.31 | 1003.62 ± 0.31 | 1503.6 ± 1.1 | 1515.8 ± 1.1 | 1526.2 ± 1.1 | 1535.2 ± 1.1
m1 = 0.2985 | 1012.68 ± 0.31 | 1011.33 ± 0.31 | 1009.77 ± 0.31 | 1008 ± 0.31 | 1512.9 ± 1.1 | 1524.5 ± 1.1 | 1534.1 ± 1.1 | 1542.4 ± 1.1
m1 = 0.4006 | 1017.54 ± 0.31 | 1016.13 ± 0.31 | 1014.5 ± 0.31 | 1012.7 ± 0.31 | 1522.6 ± 1.1 | 1533.1 ± 1.1 | 1542 ± 1.1 | 1549.4 ± 1.1

— the NIST ThermoML archive (doi:10.1021/acs.jced.7b00464)
